In patent US10815247B2, “Functionalized NANOLUC inhibitors” (PROMEGA CORPORATION, priority 2016, dated 2020):
Entries after “also recorded” stand apart in the source; their conditions may differ.

How the values were obtained:
NanoLuc [1] = target: T1, NanoLuc (Oplophorus gracilirostris, UniProt Q9GV45, A31E/A60N/A81I/F95D/I117V/K70R/L54V/L99Q/M102K/N193R/P142E/Q151K/Q38R/Q45L/V71I/Y165I); experiment: Inhibitor IC50 determination; format: biochemical
Procedure: The following example provides the IC50 values for the compounds disclosed herein. NANOLUC® enzyme was diluted to 0.4 ng/ml in CO2 independent media+10% FBS to make the detection reagent. A 3× dilution series of each inhibitor was then made in the detection reagent. A “no inhibitor” control was also made for each sample. 50 ul of each inhibitor dilution was mixed with 50 ul of NanoGlo® buffer containing 20 μM furimazine (final furimazine concentration is 10 μM, which is at Km.), and luminescence was measured. Each sample was normalized to the “no inhibitor” control. The IC50 values were then determined using GraphPad Prism (log[inhibitor] vs. normalized response).

NanoLuc [2] = target: T1, NanoLuc; conditions: inhibitor diluted to 3 uM, NanoLuc 0.4 ng/ml, 100 uM furimazine, read at two minute intervals
Procedure: Inhibitors were diluted to 3 uM into OptiMEM+0.1% FBS. NanoLuc was diluted to 0.4 ng/ml into NanoGlo® buffer+100 uM furimazine. 50 ul of each inhibitor was added to 50 ul of the NanoLuc/furimazine/NanoGlo® solution. Samples were immediately placed in a GloMax Multi+ set to read in kinetic mode at two minute intervals.
Inhibitors were diluted to 3 uM into OptiMEM+0.1% FBS. NanoLuc was diluted to 0.4 ng/ml into NanoGlo® buffer+100 uM furimazine. 50 ul of each inhibitor was added to 50 ul of the NanoLuc/furimazine/NanoGlo® solution. Samples were immediately placed in a GloMax® Multi+ set to read in kinetic mode at two minute intervals.

NanoLuc [3] = target: T1, NanoLuc; experiment: Suicide inhibition: displacement of inhibitor by furimazine upon dilution (FIG. 7); conditions: 10 μM Nluc + 10 μM inhibitor 30 minutes at RT, diluted to 10 pM, furimazine 10 uM
Procedure: Following dilution, 50 ul of the dilution was combined with 50 ul of NanoGlo® assay buffer.
Following dilution, 50 ul of the dilution was combined with 50 ul of NanoGlo® assay buffer. Final furimazine concentration was 10 uM.

Nluc in HeLa cells = Nluc in HeLa cells (Oplophorus gracilirostris, UniProt Q9GV45, A31E/A60N/A81I/F95D/I117V/K70R/L54V/L99Q/M102K/N193R/P142E/Q151K/Q38R/Q45L/V71I/Y165I); experiment: Inhibition of Nluc luciferase in cells (FIG. 2A); conditions: 2 hours at 37° C., furimazine 190 μM
Nluc in HeLa cells, sequence (Q9GV45 28-196 with tags or gaps with the stated changes limits assumed): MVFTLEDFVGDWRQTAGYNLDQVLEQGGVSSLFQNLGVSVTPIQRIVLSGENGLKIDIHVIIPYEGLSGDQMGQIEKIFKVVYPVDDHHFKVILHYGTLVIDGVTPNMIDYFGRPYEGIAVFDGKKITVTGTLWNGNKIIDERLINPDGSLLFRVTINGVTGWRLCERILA
Procedure: (§4) HeLa cells were reverse transfected with expression constructs for Nluc or Nluc-HT, plated (20,000 cells/100 μL growth medium) and incubated for 24 hours. […] HeLa cells were reverse transfected with expression constructs for Nluc or Nluc-HT, plated (20,000 cells/100 μL growth medium), and incubated for 24 hours.

[4] = target: Nluc-HT-618 in HeLa cells (Oplophorus gracilirostris, UniProt Q9GV45, A31E/A60N/A81I/F95D/I117V/K70R/L54V/L99Q/M102K/N193R/P142E/Q151K/Q38R/Q45L/V71I/Y165I); experiment: Inhibition of Nluc luciferase in cells (FIG. 2B); conditions: HeLa cells pre-labelled with 500 nM NanoBRET 618 ligand, 2 hours at 37° C., furimazine 190 μM
Nluc-HT-618 in HeLa cells, sequence (Q9GV45 28-196 with tags or gaps with the stated changes limits assumed): as above
Procedure: as §4

[5] = test system: Nluc-HT fusion protein in HeLa cells; experiment: Inhibition of Nluc luciferase in cells (FIG. 2A, 2B); format: cell-based; conditions: 2 hours at 37° C., furimazine 190 μM
[6] = target: Nluc-HT-TMR (Nluc-HT conjugated to TMR chloroalkane) (Oplophorus gracilirostris, UniProt Q9GV45, A31E/A60N/A81I/F95D/I117V/K70R/L54V/L99Q/M102K/N193R/P142E/Q151K/Q38R/Q45L/V71I/Y165I); experiment: Inhibition of Nluc luciferase by JRW-0308 (FIG. 1); conditions: 0.05 nM protein in PBS/0.05% BSA, 2 hours at room temperature, furimazine 10 μM
Nluc-HT-TMR (Nluc-HT conjugated to TMR chloroalkane), sequence (Q9GV45 28-196 with tags or gaps with the stated changes limits assumed): as above
Procedure: (§5) Samples were analyzed after addition of furimazine (10 μM final concentration) using a BMG Clariostar plate reader.

Nluc = Nluc (Oplophorus gracilirostris, UniProt Q9GV45, A31E/A60N/A81I/F95D/I117V/K70R/L54V/L99Q/M102K/N193R/P142E/Q151K/Q38R/Q45L/V71I/Y165I); experiment: Inhibition of Nluc luciferase by JRW-0308 (FIG. 1); conditions: 0.05 nM protein in PBS/0.05% BSA, 2 hours at room temperature, furimazine 10 μM
Nluc, sequence (Q9GV45 28-196 with tags or gaps with the stated changes limits assumed): as above
Procedure: as §5

Nluc-HT fusion protein = experiment: Inhibition of Nluc luciferase by JRW-0308 (FIG. 1); format: biochemical; conditions: 0.05 nM protein in PBS/0.05% BSA, 2 hours at room temperature, furimazine 10 μM
NanoLuc [7] = target: T1, NanoLuc; experiment: Multiplexing luciferases with the same wavelength (FIG. 11); format: biochemical; conditions: 100 uM JRW-0552 solution in NanoGlo buffer, 0.4 ng/ml NanoLuc, kinetic read
Procedure: (§1) Three conditions are represented in this figure: 1) NanoLuc with JRW-0552; 2) NanoLuc and HiBiT with JRW-0552; and 3) NanoLuc and LgBiT with JRW-0552. At the 50 minute mark, an addition is done in each condition: 1) furimazine; 2) furimazine; and 3) LgBiT, furimazine, and HiBiT, respectively.
(§2) The following solutions were prepared in TBS+20 uM furimazine: 1) 0.4 ng/ml NanoLuc, 2) 0.4 ng/ml NanoLuc+0.2 nM HaloTag-HiBiT, 3) 0.4 ng/ml NanoLuc+200 nM LgBiT. 50 ul of each solution was combined in triplicate with a solution containing 100 uM JRW-0552 diluted into NanoGlo® buffer.
(§3) After 50 minutes, 100 ul of the following solutions were added to the corresponding samples: 1) NanoGlo® buffer+50 uM furimazine, 2) NanoGlo® buffer+50 uM furimazine+200 nM LgBiT, 3) NanoGlo® buffer+50 uM furimazine+0.2 nM HaloTag-HiBiT.

[8] = test system: NanoBiT (LgBiT and HaloTag-HiBiT); experiment: as above; format: biochemical; conditions: 100 uM JRW-0552 solution; LgBiT 200 nM, HaloTag-HiBiT 0.2 nM added after 50 minutes
Procedure: as §1, §2, §3

Cetux-Fab-Nluc = experiment: EGFR/Cetuximab binding assay with inhibitor and PBS wash (FIG. 9); format: biochemical; conditions: 1 μM inhibitor for 5 or 30 minutes, PBS wash 0, 10, 30, or 60 minutes, furimazine 10 μM
Procedure: Cetux-Fab-Nluc competes with Cetuximab for binding of EGFR. […] Following the first reading, 1 μM inhibitor is added for a period of 5 minutes or 30 minutes. The plates were subsequently washed with PBS for 0, 10, 30, or 60 minutes.

T1 sequence (Q9GV45 28-196 with tags or gaps with the stated changes limits assumed): as above

Row | SMILES | IC50 (NanoLuc [1]) [nM] | Nluc inhibition over time (kinetic light output) (NanoLuc [2]) | displacement of inhibitor by furimazine upon dilution (NanoLuc [3]) | reversibility of Nluc inhibition (NanoLuc [3]) | other results
1 | CCN(C(=O)Cn1c(C(=O)N[C@H]2CC[C@H](C(=O)OC)CC2)cc2sccc21)c1cccc(CCCBr)c1 [JRW-0548, methyl trans-4-(4-(2-((3-(3-bromopropyl)phenyl)(ethyl)amino)-2-oxoethyl)-4H-thieno[3,2-b]pyrrole-5-carboxamido)cyclohexane-1-carboxylate] | 99 | steady state inhibition | – | – | –
2 | CCc1cccc(N(CC)C(=O)Cn2c(C(=O)N[C@H]3CC[C@H](C(=O)NCCCCCC(=O)ON4C(=O)CCC4=O)CC3)cc3ccccc32)c1 [JRW-0604, 2,5-dioxopyrrolidin-1-yl 6-(trans-4-(1-(2-(ethyl(3-ethylphenyl)amino)-2-oxoethyl)-1H-indole-2-carboxamido)cyclohexane-1-carboxamido)hexanoate] | 2.7 | – | slower | did not show irreversible inhibition | –
3 | CCc1cccc(N(CC)C(=O)Cn2c(C(=O)N[C@H]3CC[C@H](C(=O)NCCCCCC(=O)Oc4ccccc4)CC3)cc3ccccc32)c1 [JRW-0606, phenyl 6-(trans-4-(1-(2-(ethyl(3-ethylphenyl)amino)-2-oxoethyl)-1H-indole-2-carboxamido)cyclohexane-1-carboxamido)hexanoate] | 4.1 | – | slower | – | –
4 | CCc1cccc(N(CC)C(=O)Cn2c(C(=O)N[C@H]3CC[C@H](C(=O)NCCCCCCCC(=O)ON4C(=O)CCC4=O)CC3)cc3ccccc32)c1 [JRW-0600, 2,5-dioxopyrrolidin-1-yl 8-(trans-4-(1-(2-(ethyl(3-ethylphenyl)amino)-2-oxoethyl)-1H-indole-2-carboxamido)cyclohexane-1-carboxamido)octanoate] | – | – | not displaced | irreversible inhibition; also recorded: irreversibly inhibit | –
5 | CCN(C(=O)Cn1c(C(=O)N[C@H]2CC[C@H](C(=O)NCCCCCCNC(=O)OCCOCCOCCOC(=O)NCCOCCOCCCCCCCl)CC2)cc2sccc21)c1cccc(C)c1 [JRW-0308] | 22 | – | – | – | inhibition of Nluc in cells (Nluc in HeLa cells): higher concentrations are required; inhibition of Nluc-HT-618 in cells [4]: higher concentrations of JRW-0308 are necessary; inhibition of Nluc-HT fusion protein in cells [5]: potently inhibits; inhibition of Nluc-HT-TMR [6]: higher concentrations are required; inhibition of Nluc alone (Nluc): higher concentrations are required; inhibition of Nluc-HT fusion protein (Nluc-HT fusion protein): potently inhibits
6 | CCN(C(=O)Cn1c(C(=O)N[C@H]2CC[C@H](C(=O)NCCCCCCCC(=O)ON3C(=O)CCC3=O)CC2)cc2sccc21)c1cccc(C)c1 [JRW-0552] | 2.9 | time dependent inhibition | not displaced | irreversible inhibition; also recorded: irreversibly inhibit | inhibition of NanoLuc signal (NanoLuc [7]): selectively inhibits; activity of NanoBiT configurations in presence of inhibitor [8]: remain operational; reversibility of inhibition after PBS wash (Cetux-Fab-Nluc): irreversible
7 | CCN(C(=O)Cn1c(C(=O)N[C@H]2CC[C@H](C(=O)NCCCCCCCC(=O)NCCOCCOCCC(=O)ON3C(=O)CCC3=O)CC2)cc2sccc21)c1cccc(C)c1 [JRW-0544, 2,5-dioxopyrrolidin-1-yl 1-(trans-4-(4-(2-(ethyl(m-tolyl)amino)-2-oxoethyl)-4H-thieno[3,2-b]pyrrole-5-carboxamido)cyclohexyl)-1,10-dioxo-14,17-dioxa-2,11-diazaicosan-20-oate] | 13 | steady state binding | – | – | –
8 | CCc1cccc(N(CC)C(=O)Cn2c(C(=O)N[C@H]3CC[C@H](C(=O)NCCCCCC(=O)OC)CC3)cc3ccccc32)c1 [JRW-0598, methyl 6-(trans-4-(1-(2-(ethyl(3-ethylphenyl)amino)-2-oxoethyl)-1H-indole-2-carboxamido)cyclohexane-1-carboxamido)hexanoate] | 0.4 | – | slower | – | –
